≈ marks a conversion by molar mass, not a printed value. Structures can show the parent of a compound that is named as a salt.
Columns and labels:
Strep pyogenes EES 61 = assay: Second in vitro test, MIC in Brain Heart Infusion Broth (BHIB)
Stap. Aureus CMX 553 = assay: as above
E. Coli Juhl [1] = assay: as above
Ps. Aeruginosa A5007 = assay: as above
P. Aeruginosa A5007 = assay: Acute mouse protection test; format: in vivo; settings: mice infected intraperitoneally with P. Aeruginosa A5007, dosed at 1 and 5 hours post-infection
E. Coli Juhl [2] = assay: Acute mouse protection test; format: in vivo; settings: mice infected intraperitoneally with E. Coli JUHL, dosed at 1 and 5 hours post-infection
Stap. Aureus NCTC 10649 = assay: Acute mouse protection test; format: in vivo; settings: mice infected intraperitoneally with Stap. Aureus NCTC 10649, dosed at 1 and 5 hours post-infection
PSEUDOMONAS CEPACIA 2961 = assay: In vitro antibacterial activity, agar dilution MIC (BHIA); format: cell-based; settings: BHI agar
[3] = test system: MICROCOCCUS LUTEUS ATCC 9341; assay: as above; format: cell-based; settings: BHI agar
[4] = test system: STREPTOCOCCUS PYOGENES EES61; assay: as above; format: cell-based; settings: STREPTOCOCCUS PYOGENES EES61; BHI agar
ESCHERICHIA COLI JUHL = assay: as above; format: cell-based; settings: BHI agar
[5] = test system: STREPTOCOCCUS AGALACTIAE CMX 508; assay: as above; format: cell-based; settings: STREPTOCOCCUS AGALACTIAE CMX 508; BHI agar
[6] = test system: PROVIDENCIA STUARTII CMX 640; assay: as above; format: cell-based; settings: BHI agar
[7] = test system: STREPTOCOCCUS PYOGENES 2548 INDUC; assay: as above; format: cell-based; settings: BHI agar
[8] = test system: PSEUDOMONAS AERUGINOSA K799/WT; assay: as above; format: cell-based; settings: BHI agar
ESCHERICHIA COLI KNK 437 = assay: as above; format: cell-based; settings: BHI agar
[9] = test system: STREPTOCOCCUS BOVIS A5169; assay: as above; format: cell-based; settings: STREPTOCOCCUS BOVIS A5169; BHI agar
[10] = test system: PSEUDOMONAS AERUGINOSA A5007; assay: as above; format: cell-based; settings: BHI agar
[11] = test system: ENTEROCOCCUS FAECIUM ATCC 8043; assay: as above; format: cell-based; settings: ENTEROCOCCUS FAECIUM ATCC 8043; BHI agar
ESCHERICHIA COLI SS = assay: as above; format: cell-based; settings: BHI agar
Source text: (§1) The MIC results are in μg/ml.

ESCHERICHIA COLI H560 = assay: as above; format: cell-based; settings: BHI agar
Source text: as §1

ESCHERICHIA COLI DC-2 = assay: as above; format: cell-based; settings: BHI agar
Source text: as §1

[12] = test system: PSEUDOMONAS AERUGINOSA BMH10; assay: as above; format: cell-based; settings: BHI agar

| MIC (Strep pyogenes EES 61) | MIC (Stap. Aureus CMX 553) | MIC (E. Coli Juhl [1]) | MIC (Ps. Aeruginosa A5007) | Structure (SMILES) | Oral (ED50) (P. Aeruginosa A5007) | Oral (ED50) (E. Coli Juhl [2]) | Oral (ED50) (Stap. Aureus NCTC 10649) | further results |
| --- | --- | --- | --- | --- | --- | --- | --- | --- |
| 32 µg/mL | 16 µg/mL | 16 µg/mL | 64 µg/mL | Cl.NCC(=O)N[C@@H](Cc1ccccc1)C(=O)NC1CCN(c2cc3c(cc2F)c(=O)c(C(=O)O)cn3-c2ccc(F)cc2F)C1 (stereo partly drawn) [Example 26jj, 1-(2,4-Difluorophenyl)-6-Fluoro-7-(3-Gly-L-Phe -Amino 1-Pyrrolidinyl)-1,4-Dihydro-4-Oxo-Quinoline-3-Carboxylic Acid Hydrochloride] | – | – | – | – |
| 25 µg/mL | 25 µg/mL | 12.5 µg/mL | > 100 µg/mL | CS(=O)(=O)CC[C@H](N)C(=O)NC1CCN(c2nc3c(cc2F)c(=O)c(C(=O)O)cn3-c2ccc(F)cc2F)C1.Cl (stereo partly drawn) [Example 31c, 7-[3 L-Methioninesulfone Amino-1-Pyrrolidinyl]-1-(2,4-Difluorophenyl)-6-Fluoro-1,4-Dihydro-4-Oxo 1,8-Naphthyridine 3-Carboxylic Acid Hydrochloride] | 7.8 mg/kg/day | 1.8 mg/kg/day | 1.8 mg/kg/day | – |
| – | – | 0.39 µg/mL (≈ 0.803 µM) | 6.2 µg/mL (≈ 12.8 µM) | CCCC(N)C(=O)NC1CCN(c2nc3c(cc2F)c(=O)c(C(=O)O)cn3-c2ccc(F)cc2)C1 (stereo not shown) [Example 26i] | – | – | 5.3 mg/kg/day | – |
| – | – | – | – | Cl.N[C@@H](CC(=O)O)C(=O)NC1CCN(c2nc3c(cc2F)c(=O)c(C(=O)O)cn3-c2ccc(F)cc2F)C1 (stereo partly drawn) [Example 45, 7-(3-L-Asp-amino-1-pyrrolidinyl)-1-(2,4-difluorophenyl)-6-fluoro-1,4-dihyd ro-4-oxo-1,8-naphthyridine-3-carboxylic acid hydrochloride] | 13.0 mg/kg/day | – | 1.5 mg/kg/day | – |
| – | 0.39 µg/mL (≈ 0.776 µM) | 0.78 µg/mL (≈ 1.55 µM) | 6.2 µg/mL (≈ 12.3 µM) | CCCC(N)C(=O)NC1CCN(c2cc3c(cc2F)c(=O)c(C(=O)O)cn3-c2ccc(F)cc2F)C1 (stereo not shown) [Example 26b] | – | – | – | – |
| – | – | – | – | CCCC(N)C(=O)NC1CCN(c2cc3c(cc2F)c(=O)c(C(=O)O)cn3C2CC2)C1 (stereo not shown) [Example 26l] | – | 9.4 mg/kg/day | – | – |
| 100 µg/mL (≈ 162 µM) | 25 µg/mL (≈ 40.5 µM) | 25 µg/mL (≈ 40.5 µM) | > 100 µg/mL | CCC[C@H](NC(=O)CNC(=O)CN)C(=O)NC1CCN(c2nc3c(cc2F)c(=O)c(C(=O)O)cn3-c2ccc(F)cc2F)C1 (stereo partly shown) [Example 30] | 3.3 mg/kg/day | – | 2.2 mg/kg/day | – |
| – | – | – | – | NC(=O)C[C@H](N)C(=O)NC1CCN(c2nc3c(cc2F)c(=O)c(C(=O)O)cn3-c2ccc(F)cc2F)C1 (stereo partly drawn) [Example 41, 7-(3-L-Asparagine-amino-1-pyrrolidinyl)-1-(2,4-6-fluoro-1,4-dihydro-4-oxo-1,8-difluorophenyl)-3-carboxylic acid hydrochloride] | – | – | 2.9 mg/kg/day | – |
| – | – | – | – | NC(Cc1ccccc1)C(=O)NC1CCN(c2nc3c(cc2F)c(=O)c(C(=O)O)cn3-c2ccc(F)cc2F)C1 (stereo not shown) [Example 5] | – | 3.5 mg/kg/day | 3.6 mg/kg/day | MIC (PSEUDOMONAS CEPACIA 2961): > 100 µg/mL; MIC [3]: 25 µg/mL (≈ 45.3 µM); MIC [4]: 3.1 µg/mL (≈ 5.62 µM); MIC (ESCHERICHIA COLI JUHL): 3.1 µg/mL (≈ 5.62 µM); MIC [5]: 3.1 µg/mL (≈ 5.62 µM); MIC [6]: > 100 µg/mL; MIC [7]: .78 µg/mL (≈ 1.41 µM); MIC [8]: 25 µg/mL (≈ 45.3 µM); MIC (ESCHERICHIA COLI KNK 437): 100 µg/mL (≈ 181 µM); MIC [9]: 6.2 µg/mL (≈ 11.2 µM); MIC [10]: 50 µg/mL (≈ 90.7 µM); MIC [11]: 3.1 µg/mL (≈ 5.62 µM); MIC (ESCHERICHIA COLI SS): .1 µg/mL (≈ 0.181 µM); MIC (ESCHERICHIA COLI H560): 3.1 µg/mL (≈ 5.62 µM); MIC (ESCHERICHIA COLI DC-2): 50 µg/mL (≈ 90.7 µM); MIC [12]: 25 µg/mL (≈ 45.3 µM) |
| – | – | – | – | O=C(O)c1cn(-c2ccc(F)cc2F)c2nc(N3CCC(NC(=O)C4CCCN4)C3)c(F)cc2c1=O (stereo not shown) [Example 28] | – | – | 3.2 mg/kg/day | – |
| – | – | – | 5.0 µg/mL (≈ 9.34 µM) | CSCCC(N)C(=O)NC1CCN(c2nc3c(cc2F)c(=O)c(C(=O)O)cn3-c2ccc(F)cc2F)C1 (stereo not shown) [Example 23] | – | – | 1.5 mg/kg/day | – |
| 0.78 µg/mL (≈ 1.69 µM) | – | 0.78 µg/mL (≈ 1.69 µM) | – | NCC(=O)NC1CCN(c2nc3c(cc2F)c(=O)c(C(=O)O)cn3-c2ccc(F)cc2F)C1 (stereo not shown) [Example 7] | – | 5.0 mg/kg/day | 2.4 mg/kg/day | – |
| – | 0.78 µg/mL (≈ 1.61 µM) | 0.78 µg/mL (≈ 1.61 µM) | 6.2 µg/mL (≈ 12.8 µM) | CCCC(N)C(=O)NC1CCN(c2cc3c(cc2F)c(=O)c(C(=O)O)cn3-c2ccc(F)cc2)C1 (stereo not shown) [Example 26h] | – | – | 4.0 mg/kg/day | – |
| 6.2 µg/mL (≈ 14.8 µM) | – | – | – | CCC[C@H](N)C(=O)NC1CCN(c2nc3c(cc2F)c(=O)c(C(=O)O)cn3CC)C1 (stereo partly shown) [Example 26ff] | – | – | – | – |
| 32 µg/mL | 16 µg/mL | 64 µg/mL | > 64 µg/mL | Cl.Cl.N[C@@H](Cc1c[nH]cn1)C(=O)NC1CCN(c2nc3c(cc2F)c(=O)c(C(=O)O)cn3-c2ccc(F)cc2F)C1 (stereo partly drawn) [Example 44c, 7-[3-L-Histidine-Amino-1-Pyrrolidinyl)-1-(2,4-Difluorophenyl)-6-Fluoro-1,4-Dihydro-4-oxo-1,8-Naphthyridine-3-Carboxylic Acid Dihydrochloride] | 51.3 mg/kg/day | – | 4.0 mg/kg/day | – |
| 3.1 µg/mL (≈ 6.96 µM) | 0.39 µg/mL (≈ 0.875 µM) | 0.2 µg/mL (≈ 0.449 µM) | – | CC(C)CC(N)C(=O)NC1CCN(c2nc3c(cc2F)c(=O)c(C(=O)O)cn3C2CC2)C1 (stereo not shown) [Example 26o] | 6.2 mg/kg/day | 1.2 mg/kg/day | 4.0 mg/kg/day | – |
| – | – | – | – | CCCC(N)C(=O)NC1CCN(c2c(F)cc3c(=O)c(C(=O)O)cn(C4CC4)c3c2F)C1 (stereo not shown) [Example 26r] | 7.3 mg/kg/day | 2.3 mg/kg/day | 3.0 mg/kg/day | – |
| – | 2.0 µg/mL (≈ 4.21 µM) | 0.5 µg/mL (≈ 1.05 µM) | 16 µg/mL (≈ 33.7 µM) | CC(N)C(=O)NC1CCN(c2nc3c(cc2F)c(=O)c(C(=O)O)cn3-c2ccc(F)cc2F)C1 (stereo not shown) [Example 17] | – | 2.0 mg/kg/day | 1.7 mg/kg/day | – |
| – | – | – | – | CC(N)C(=O)NC1CCN(c2c(F)cc3c(=O)c(C(=O)O)cn(C4CC4)c3c2F)C1 (stereo not shown) [Example 26s] | 5.0 mg/kg/day | 1.8 mg/kg/day | 4.8 mg/kg/day | – |
| – | 16.0 µg/mL (≈ 25.7 µM) | 16 µg/mL (≈ 25.7 µM) | – | CC(N)C(=O)NC(Cc1ccccc1)C(=O)NC1CCN(c2nc3c(cc2F)c(=O)c(C(=O)O)cn3-c2ccc(F)cc2F)C1 (stereo not shown) [Example 11] | – | – | 2.0 mg/kg/day | – |
| 3.1 µg/mL (≈ 7.18 µM) | 0.39 µg/mL (≈ 0.904 µM) | 0.39 µg/mL (≈ 0.904 µM) | – | CCCC(N)C(=O)NC1CCN(c2nc3c(cc2F)c(=O)c(C(=O)O)cn3C2CC2)C1 (stereo not shown) [Example 26p] | 9.1 mg/kg/day | – | 4.5 mg/kg/day | – |
| 100 µg/mL | 100 µg/mL | – | > 100 µg/mL | Cl.Cl.NCCCC[C@H](N)C(=O)NC1CCN(c2nc3c(cc2F)c(=O)c(C(=O)O)cn3-c2ccc(F)cc2F)C1 (stereo partly shown) [Example 46, 7-(3-Lys-amino-1-pyrrolidinyl)-1-(2,4-difluorophenyl)-6-fluoro-1,4-dihydro-4-oxo-1,8-naphthyridine-3-carboxylic acid dihydrochloride] | – | – | 3.4 mg/kg/day | – |
| – | – | – | 50 µg/mL (≈ 88.1 µM) | NC(Cc1ccc(O)cc1)C(=O)NC1CCN(c2nc3c(cc2F)c(=O)c(C(=O)O)cn3-c2ccc(F)cc2F)C1 (stereo not shown) [Example 13] | – | – | 1.7 mg/kg/day | – |
| 6.2 µg/mL (≈ 12 µM) | – | – | 25 µg/mL (≈ 48.3 µM) | CC(C)CC(N)C(=O)NC1CCN(c2nc3c(cc2F)c(=O)c(C(=O)O)cn3-c2ccc(F)cc2F)C1 (stereo not shown) [Example 21] | – | – | 2.4 mg/kg/day | – |
